Measured values taken from US20060034780A1, “Dental compositions and methods” (The Boots Company, priority 2002, published 2006).

Experiment: Whitening of extracted teeth, CIE whiteness index by image analysis
Protocol: Extracted caries-free teeth collected from dental hospitals were briefly brushed to remove any skin tissue attached. The teeth were then sterilized by autoclaving at 121° C. for 25 mins. All teeth were stored in an airtight plastic container containing a solution of Phosphate Buffered Saline (PBS) with a few crystals of thymol as an antibacterial agent until required for use. Twenty four hours before the study, each tooth was glued onto a numbered glass microscope slide. A pellicle was formed on the teeth by soaking in sterilised artificial saliva with the composition set out in Table 1.
After the 24 hr period of pellicle formation, the teeth were then brushed with an Oral B Plaque remover electric toothbrush for 2 mins, with a standard fluoride toothpaste, the composition of which is set out in Table 2:
Excess toothpaste was removed by briefly rinsing each tooth with deionised water. The teeth were returned to a fresh aliquot of artificial saliva and then measured. The measured whiteness index (determined by image analysis as described below) was taken as the baseline against which subsequent measurements were compared.
[…] Teeth were returned to a fresh aliquot of artificial saliva and a Post-Bleach measurement taken.
FWA was applied to the teeth by immersion in a 500 ppm FWA solution (50 mg FWA in 100 ml deionised water stirred for 30 minutes) for 1 hr. The teeth were returned to a fresh aliquot of artificial saliva and a post-FWA measurement taken.
Each tooth was imaged using a Kodak DCS 410 camera, which was mounted 10 cm above and perpendicular to the specimen, using aperture F11 and a shutter speed of 1/10 second. The standardised lighting source comprised two UV tubes and two 6500K ‘daylight’ tubes. Each image was transferred to Adobe PhotoShop software. For each image, an 8 mm^2 area was analysed and an average Adobe L,a,b reading obtained using the software. All L,a,b values were converted to CIE L*,a*,b* and then to the CIE whiteness index W, using the equation: W=Y+800(xn−x)+1700(yn−y) where Y is the Y-tristimulus value of the specimen, x and y, and xn and yn are the chromaticity coordinates for the specimen and for the perfect diffuser for the CIE 1931 2° Standard Observer, respectively. Results

OO [Example H2O2, hydrogen peroxide]
average percentage increase in whiteness index (H2O2 alone: immersion in 15% hydrogen peroxide solution for 1 hr, vs baseline, six groups of three teeth): 17%
change in whiteness index (in words) (treatment with 15% H2O2, each group of teeth, vs baseline): increase in whiteness index

O=S(=O)(O)c1ccccc1C=Cc1ccc(-c2ccc(C=Cc3ccccc3S(=O)(=O)O)cc2)cc1 [FWA, 4,4′-bis(2-sulfostyryl)biphenyl]
change in whiteness index (in words) compared with treatment with H2O2 alone (FWA treatment after 15% H2O2 bleaching): further increase in whiteness
average percentage increase in whiteness index (combined treatment using chlorine dioxide (sodium chlorite bleach) and FWA (Tinopal CBS-X), vs baseline): 41%
average percentage increase in whiteness index (combined treatment: 15% H2O2 1 hr, then 500 ppm FWA solution 1 hr, vs baseline, six groups of three teeth): 24%

sodium chlorite
average percentage increase in whiteness index (bleach alone: sodium chlorite (generating chlorine dioxide in use) in place of H2O2, vs baseline): 8%
